≈ marks a conversion by molar mass, not a printed value.
Assays:
E. faecalis = test: Whole cell antimicrobial screen, MIC (Efs); assay type: cell-based; conditions: 2-fold dilutions, overnight incubation; for MIC: Enterococcus faecalis, read-out: MIC (μg/mL) Efs
Method: (§1) Compounds were tested for antimicrobial activity against a panel of organisms according to standard procedures described by the National Committee for Clinical Laboratory Standards (NCCLS document M7-A3, Vol. 13, No. 25, 1993/NCCLS document M27-P, Vol. 12, No. 25, 1992). Compounds were dissolved in 100% DMSO and were diluted to the final reaction concentration (0.1 μg/ml-500 μg/ml) in microbial growth media. In all cases the final concentration of DMSO incubated with cells is less than or equal to 1%. For minimum inhibitory concentration (MIC) calculations, 2-fold dilutions of compounds were added to wells of a microtiter plate containing 1×10^5 bacteria or fungal cells in a final volume of 200 lambda of an appropriate media (Mueller-Hinton Broth; Haemophilus Test Media; Mueller-Hinton Broth+5% Sheep Blood; or […]). Plates were incubated overnight at an appropriate temperature (30° C.-37° C.) and optical densities (measure of cell growth) were measured using a commercial plate reader. The MIC value is defined as the lowest compound concentration inhibiting growth of the test organism.

[1] = test system: aminoacyl-tRNA synthetases (aaRS); test: aaRS charging and trichloroacetic acid precipitation assay, IC50 (S. aureus); assay type: biochemical; conditions: aaRS of S. aureus; values are range classes
Method: (§2) IC50 determinations for the aminoacyl-tRNA synthetases (aaRS) isolated from pathogen or HeLa cells were carried out using a modification of the aaRS charging and trichloroacetic acid precipitation assay described previously (see examples: D. Kern et. al., Biochemie, 61, 1257-1272 (1979) and J. Gilbart et. al. Antimicrobial Agents and Chemotherapy, 37(1), 32-38 (1993)). The aaRS enzymes were prepared via standard cloning and expression methods and partially purified or partially purified from pathogen and HeLa cell extracts. The activity of each aaRS enzyme was standardized as trichloroacetic acid precipitable counts (cpm) obtained at 10 minutes reaction time at Km concentrations of substrates. For practical purposes, the minimal acceptable value is approximately 2000 cpm per 10 minute reaction.
(§3) Preincubations for IC50 determinations were initiated by incubating partially purified aaRS extracts in 50 mM HEPES (pH 7.5), 0.1 mM EDTA, 0.05 mg/ml bovine serum albumin, 10 mM dithiothreitol and 2.5% dimethyl sulfoxide with and without test compound (e.g. compound of the invention (preferably a compound of Formula I)) in a final volume of 20 microliters in a microtiter plate for 20 minutes at 25 C. Test compounds were typically present as serial dilutions in concentration ranges of 0.35 nM to 35 μM. Test compound solutions were prepared by dissolving test compound in 100% dimethyl sulfoxide and diluting to the final concentration with 50 mM HEPES, pH 7.5. IC50 determinations were typically performed in duplicate with each experiment containing 4-8 concentrations of inhibitor along with two no inhibitor controls.
(§4) IC50 incubations were initiated by supplementing the preincubation mixture to a final assay concentration of 10 mM MgCl2, 30 mM KCl, 10 mM KF, 50 mM HEPES (pH 7.5), 20 μM-500 mM ATP, 2-20 μM [^3H] amino acid, and 90-180 μM crude tRNA in a final volume of 35 microliters. The reaction was incubated at 25° C. for 5-20 minutes. At specified time points a 15 microliter aliquot was removed and added to a well of a Millipore filtration plate (Multiscreen-FB, MAFB NOB 10) containing 100 microliters of cold 5% (wt/vol) trichloroacetic acid. Trichloroacetic acid precipitable material was collected by filtration on Millipore Multiscreen filtration station, washed twice with cold 5% trichloroacetic acid, twice with water, and dried. Plates were typically allowed to air dry for several hours or they were baked at 50° C. in a vacuum oven for 30 minutes. The radioactivity on the dried plates was quantitated by the addition of Packard Microscint-20 to the wells and counting with a Packard TopCount scintillation counter.
(§5) Inhibitor activity was typically reported as a percentage of the control aaRS activity. The IC50 value was determined by plotting percent activity versus compound concentration in the assay and identifying the concentration at which 50% of the activity was remaining.

S. aureus = test: Whole cell antimicrobial screen, MIC (S. aureus); assay type: cell-based; conditions: 2-fold dilutions, overnight incubation; for MIC: Staphylococcus aureus, read-out: MIC (μg/mL) Sa
Method: as §1

[2] = test system: aminoacyl-tRNA synthetases (aaRS); test: aaRS charging and trichloroacetic acid precipitation assay, IC50 (E. faecalis); assay type: biochemical; conditions: aaRS of E. faecalis; values are range classes
Method: as §2, §3, §4, §5

E. faecium = test: Whole cell antimicrobial screen, MIC (E. faecium); assay type: cell-based; conditions: 2-fold dilutions, overnight incubation; for MIC: Enterococcus faecium, read-out: MIC (μg/mL) Efm
Method: as §1

| MIC (μg/mL) Efs (E. faecalis) [µg/mL] | IC50 [1] [nM] | MIC (μg/mL) Sa (S. aureus) [µg/mL] | IC50 [2] [nM] | MIC (μg/mL) Efm (E. faecium) [µg/mL] | MIC (E. faecalis) [µg/mL] | MIC (S. aureus) [µg/mL] | MIC (E. faecium) [µg/mL] | Compound |
| --- | --- | --- | --- | --- | --- | --- | --- | --- |
| >100 | 1000 to 10000 | <100 | 1000 to 10000 | 100 (≈ 240 µM) |  |  |  | O=C(NCc1nc2ccccc2[nH]1)[C@@H]1CCCCN1Cc1ccc(Cl)cc1Cl [130,693] |
| >100 | < 500 | >100 | < 500 | >100 |  |  |  | O=C(NCc1nc2ccccc2[nH]1)C1CC(c2nn[nH]n2)CN1Cc1ccc(Cl)cc1Cl (mixture of isomers) [130,706] |
| >100 | 1000 to 10000 | 100 (≈ 256 µM) | 1000 to 10000 | 100 (≈ 256 µM) |  |  |  | Clc1ccc(CN2CCC[C@H]2COCc2nc3ccccc3[nH]2)c(Cl)c1 [130,928] |
|  | < 500 |  | 1000 to 10000 |  | < 100 | < 100 | < 100 | O=C(NCc1nc2ccccc2[nH]1)[C@@H]1CC(O)CN1Cc1ccc(Cl)cc1Cl (stereo partly shown) [127,006] |
| <100 | < 500 | <100 | 501 to 1000 | <100 |  |  |  | O=C(NCc1nc2ccccc2[nH]1)[C@@H]1C[C@@H](O)CN1Cc1ccc(Cl)cc1Cl [130,901] |
|  | 1000 to 10000 |  | 1000 to 10000 |  | > 100 | > 100 | > 100 | N#CC1CC(C(=O)NCc2nc3ccccc3[nH]2)N(Cc2ccc(Cl)cc2Cl)C1 (stereo not shown) [127,566] |
| <100 | < 500 | 100 (≈ 238 µM) | < 500 | 100 (≈ 238 µM) |  |  |  | O=C(NCc1nc2ccccc2[nH]1)[C@@H]1C[C@H](O)CN1Cc1ccc(Cl)cc1Cl [130,900] |
|  | 1000 to 10000 |  | 1000 to 10000 |  | > 100 | > 100 | > 100 | O=C(NCc1nc2ccccc2[nH]1)C1CC(=NO)CN1Cc1ccc(Cl)cc1Cl (stereo not shown) [130,707] |
|  | 1000 to 10000 |  | 1000 to 10000 |  | > 100 | > 100 | > 100 | CON=C1CC(C(=O)NCc2nc3ccccc3[nH]2)N(Cc2ccc(Cl)cc2Cl)C1 (stereo not shown) [130,708] |
|  | 1000 to 10000 |  | 1000 to 10000 |  | > 100 | > 100 | > 100 | O=C(O)CON=C1CC(C(=O)NCc2nc3ccccc3[nH]2)N(Cc2ccc(Cl)cc2Cl)C1 (stereo not shown) [130,709] |
| >100 | 10000 to 60000 | >100 | 10000 to 60000 | >100 |  |  |  | O=C(NCc1nc2ccccc2[nH]1)C1CC(O)CN1Cc1ccc(Cl)cc1Cl (stereo not shown) [130,725] |
|  | < 500 |  | 1000 to 10000 |  | < 100 | 100 (≈ 248 µM) |  | O=C(NCc1nc2ccccc2[nH]1)[C@@H]1CCCN1Cc1ccc(Cl)cc1Cl [126,881] |
| >100 | 1000 to 10000 | <100 | 1000 to 10000 | >100 |  |  |  | O=C(NCc1nc2ccccc2[nH]1)[C@H]1CCCN1Cc1ccc(Cl)cc1Cl [130,724] |
|  | < 500 |  | < 500 |  | > 100 | > 100 | > 100 | O=C(O)CC1CC(C(=O)NCc2nc3ccccc3[nH]2)N(Cc2ccc(Cl)cc2Cl)C1 (stereo not shown) [130,973] |
|  | 1000 to 10000 |  | 1000 to 10000 |  | > 100 | > 100 | > 100 | O=C(NCc1nc2ccccc2[nH]1)C1CC(OCc2ccccc2)CN1Cc1ccc(Cl)cc1Cl (stereo not shown) [127,889] |
|  | 1000 to 10000 |  | 1000 to 10000 |  | > 100 | > 100 | > 100 | O=C1C[C@@H](C(=O)NCc2nc3ccccc3[nH]2)N(Cc2ccc(Cl)cc2Cl)C1 [130,692] |
